# From US10766888B1, “HMOX1 inducers” (Mitobridge Inc., priority 2019, dated 2020)
# Structures can show the parent of a compound that is named as a salt.
# System: Human Heme Oxygenase-1 (HMOX-1)
# Test: ELISA assay to measure human heme oxygenase-1 (HMOX-1) in HepG2 lysate
# Assay type: cell-based
# Settings: fold change of human HMOX1 protein level relative to DMSO control, HepG2
# Procedure: Example 143. ELISA Assay to Measure Human Heme Oxygenase-1 (HMOX-1) in HepG2 lysate
# Reagents and Technical Notes:
# ELISA capture antibody, standard HO-1, detection antibody and streptavidin HRP were supplied in the DuoSet IC Human total HO-1 ELISA from R&D systems (DYC3776-2). The substrate cocktail was KPL LumiGLO reserve Chemiluminescent Substrate (54-71-00). PBS was Corning Cellgro Cell Culture (21-040-CV). 10×PBS+0.05% tween20 (PBST) was from KPL.
# All incubations of the plate were at room temperature (20° C.) in a closed drawer.
# The ELISA plate was processed manually. All loadings were with a multichannel pipet. Plates were emptied by shaking into the sink and tapping onto paper towels to remove any remaining reagent. Plate washing was accomplished by loading all wells with PBS+0.05% tween20 (PBST) using a squirt bottle, shaking the PBST out and tapping the plate onto paper towels.
# Preparation of the ELISA Plate:
# • 1. anti-HO-1 capture antibody was 1440 μg/ml after reconstitution in PBS. This antibody was diluted to 8 μg/ml in PBS and 50 μl per well was added to a 384 well greiner “lumitrac 200” plate. Incubated overnight. • 2. The plate was emptied and 100 μl PBS+1% BSA added to all wells. Incubated 90 minutes at room temperature. Preparation of HepG2 Lysate: • 1. Cells were cultured in a 96-well tissue culture plate washed with PBS and then the plate frozen at −70° C. overnight. Plates were allowed to warm to ice temperature in an ice bucket. 20 μl of PBS, 0.5% Triton X100, 1 mM EDTA with 1×HALT™ protease inhibitors was added to each well and the plates incubated on ice for 1 hour. • 2. The lysates were frozen at −20° C. overnight. Measurement of HMOX1 (“HO-1”) • 1. In a polypropylene 384 well plate, human HO-1 (after reconstitution in PBS+0.5% Triton+1 mM EDTA) was serially diluted from 20 ng/ml 2-fold in PBS+0.5% triton-X100, 1 mM EDTA to make a 12-point standard curve including a zero point. • 2. In a polypropylene 96 well plate, HepG2 lysate was diluted 1 to 20 in Diluent #4 from DUOSET kit in which the assay standard is also diluted. • 3. The PBS+1% BSA was emptied from the ELISA plate and 30 μl of all samples and standards were added (duplicates recommended). The plate was incubated 90 minutes. • 4. Emptied plate and washed 4 times with PBST. • 5. Diluted HO-1 detection antibody to 200 ng/ml in PBS+1% BSA and added 30 μl to all wells. Incubated 90 minutes. • 6. Emptied plate and washed 4 times with PBST. • 7. Added 30 μl streptavidin HRP at 1/200 in PBS+1% BSA (stock streptavidin concentration not specified) to all wells. Incubated 30 minutes. • 8. Emptied plate and washed 4 times with PBST. • 9. Diluted Lumiglo reserve reagent two parts buffer to one part lumiglo substrate. Added 30 μl to all wells. Incubated 5 minutes. • 10. Measured chemiluminescence on spectramax M5 using 150 ms integration.
# Table 1 below lists EC50 and fold changes of human HMOX1 protein levels relative to DMSO control upon treatment with representative compounds.
row,Maximum Fold induction [fold],SMILES
1,15.42,"COCCNC(=O)c1ccc2c(c1)nc(Nc1nc3cc(C)ccc3o1)n2C [Example 65, N-(2-methoxyethyl)-1-methyl-2-((5-methylbenzo[d]oxazol-2-yl)amino)-1H-benzo[d]imidazole-5-carboxamide]"

# Same assay, conditions: human HMOX1 protein level in HepG2 lysate; * = average of 2 or more EC50 determinations; NA = Not Active; read-out: EC50
row,SMILES,EC50 [µM]
1,"Cn1c(Nc2nc3ccc(OCC(F)(F)F)cc3o2)nc2cc(C(=O)O)ccc21 [Example 98, 1-methyl-2-((6-(2,2,2-trifluoroethoxy)benzo[d]oxazol-2-yl)amino)-1H-benzo[d]imidazole-5-carboxylic acid]",4.1
2,"Cn1c(Nc2nc3cc(C(=O)NCCOCCO)ccc3o2)nc2ccccc21 [Example 118, N-(2-(2-hydroxyethoxy)ethyl)-2-((1-methyl-1H-benzo[d]imidazol-2-yl)amino)benzo[d]oxazole-5-carboxamide]",8
3,"CN1CCC(n2c(Nc3nc4ccc(OC(F)(F)F)cc4s3)nc3cc(C(=O)O)ccc32)CC1 [Example 3d, 1-(1-methylpiperidin-4-yl)-2-((6-(trifluoromethoxy)benzo[d]thiazol-2-yl)amino)-1H-benzo[d]imidazole-5-carboxylic acid]",9.2
4,"Cn1c(Nc2nc3ccc(OCCO)cc3o2)nc2cc(C(=O)NCCN)ccc21 [Example 105, N-(2-aminoethyl)-2-((6-(2-hydroxyethoxy)benzo[d]oxazol-2-yl)amino)-1-methyl-1H-benzo[d]imidazole-5-carboxamide hydrochloride]",4.1
5,"Cn1c(Nc2nc3cc(F)c(C(F)(F)F)cc3o2)nc2cc(C(=O)O)ccc21 [Example 107, 2-((5-fluoro-6-(trifluoromethyl)benzo[d]oxazol-2-yl)amino)-1-methyl-1H-benzo[d]imidazole-5-carboxylic acid]",4.5
6,"COCCNC(=O)c1ccc2c(c1)nc(Nc1nc3ccc(OC(F)(F)F)cc3s1)n2C1CCOCC1 [Example 2e, N-(2-methoxyethyl)-1-(tetrahydro-2H-pyran-4-yl)-2-((6-(trifluoromethoxy)benzo[d]thiazol-2-yl)amino)-1H-benzo[d]imidazole-5-carboxamide]",3.8
7,"Cn1c(Nc2nc3ccc(C4CC4)cc3o2)nc2cc(C(=O)O)ccc21 [Example 115, 2-((6-cyclopropylbenzo[d]oxazol-2-yl)amino)-1-methyl-1H-benzo[d]imidazole-5-carboxylic acid]",6.2
8,"Cn1c(Nc2nc3ccccc3o2)nc2cc(C(=O)O)ccc21 [Example 1h, 2-(benzo[d]oxazol-2-ylamino)-1-methyl-1H-benzo[d]imidazole-5-carboxylic acid]",4.4
9,"Cn1c(Nc2nc3cc(F)ccc3o2)nc2cc(C(=O)O)ccc21 [Example 66, 2-((5-fluorobenzo[d]oxazol-2-yl)amino)-1-methyl-1H-benzo[d]imidazole-5-carboxylic acid]",5.4
10,"Cn1c(Nc2nc3cc(C(=O)O)ccc3n2C)nc2cc(OC(F)(F)F)ccc21 [Example 15, 1-methyl-2-((1-methyl-5-(trifluoromethoxy)-1H-benzo[d]imidazol-2-yl)amino)-1H-benzo[d]imidazole-5-carboxylic acid]",5.3
11,"COCCNC(=O)c1ccc2c(c1)nc(Nc1nc3ccccc3[nH]1)n2C [Example 12, 2-((1H-benzo[d]imidazol-2-yl)amino)-N-(2-methoxyethyl)-1-methyl-1H-benzo[d]imidazole-5-carboxamide]",4.5

# These reach a lower EC50. Values come first.
row,EC50 [µM],SMILES
1,3.6,"CN(C)CCn1c(Nc2nc3ccc(OC(F)(F)F)cc3o2)nc2cc(C(=O)O)ccc21 [Example 74, 1-(2-(dimethylamino)ethyl)-2-((6-(trifluoromethoxy)benzo[d]oxazol-2-yl)amino)-1H-benzo[d]imidazole-5-carboxylic acid]"
2,3.3,"Cn1c(Nc2nc3ccccc3o2)nc2cc(C(O)C(F)(F)F)ccc21 (stereo not drawn) [Example 142, 1-(2-(benzo[d]oxazol-2-ylamino)-1-methyl-1H-benzo[d]imidazol-5-yl)-2,2,2-trifluoroethan-1-ol]"
3,3.2,"Cn1c(Nc2nc3ccc(OC(F)(F)F)cc3o2)nc2cc(C(=O)O)c(F)cc21 [Example 70, 6-fluoro-1-methyl-2-((6-(trifluoromethoxy)benzo[d]oxazol-2-yl)amino)-1H-benzo[d]imidazole-5-carboxylic acid]"
4,3.2,"Cn1c(Nc2nc3ccc(OC(F)(F)F)cc3o2)nc2cc(C(=O)NCCS(C)(=O)=O)ccc21 [Example 54, 1-methyl-N-(2-(methylsulfonyl)ethyl)-2-((6-(trifluoromethoxy)benzo[d]oxazol-2-yl)amino)-1H-benzo[d]imidazole-5-carboxamide]"
5,2.8,"Cn1c(Nc2nc3ccc(Cl)cc3o2)nc2cc(C(=O)O)ccc21 [Example 96, 2-((6-chlorobenzo[d]oxazol-2-yl)amino)-1-methyl-1H-benzo[d]imidazole-5-carboxylic acid]"
6,2.4,"Cn1c(Nc2nc3cc(Cl)ccc3[nH]2)nc2cc(C(=O)O)ccc21 [Example 82, 2-((5-chloro-1H-benzo[d]imidazol-2-yl)amino)-1-methyl-1H-benzo[d]imidazole-5-carboxylic acid]"
7,2.2,"COCCNC(=O)c1ccc2c(c1)nc(Nc1nc3ccc(OC(F)(F)F)cc3o1)n2CCOC [Example 78, N,1-bis(2-methoxyethyl)-2-((6-(trifluoromethoxy)benzo[d]oxazol-2-yl)amino)-1H-benzo[d]imidazole-5-carboxamide]"
8,2,"Cn1c(Nc2nc3ccc(OC4CCOCC4)cc3o2)nc2cc(C(=O)NCCOCCO)ccc21 [Example 138, N-(2-(2-hydroxyethoxy)ethyl)-1-methyl-2-((6-((tetrahydro-2H-pyran-4-yl)oxy)benzo[d]oxazol-2-yl)amino)-1H-benzo[d]imidazole-5-carboxamide]"
9,2,"Cn1c(Nc2nc3ccc(F)cc3o2)nc2cc(C(=O)O)ccc21 [Example 68, 2-((6-fluorobenzo[d]oxazol-2-yl)amino)-1-methyl-1H-benzo[d]imidazole-5-carboxylic acid]"
10,1.9,"COCCNC(=O)c1ccc2c(c1)nc(Nc1nc3ccc(OC(F)(F)F)cc3o1)n2C1CCOCC1 [Example 80, N-(2-methoxyethyl)-1-(tetrahydro-2H-pyran-4-yl)-2-((6-(trifluoromethoxy)benzo[d]oxazol-2-yl)amino)-1H-benzo[d]imidazole-5-carboxamide]"
11,1.6,"O=C(NCCO)c1ccc2c(c1)nc(Nc1nc3ccc(OC(F)(F)F)cc3o1)n2CC1(O)COC1 [Example 95, N-(2-hydroxyethyl)-1-((3-hydroxyoxetan-3-yl)methyl)-2-((6-(trifluoromethoxy)benzo[d]oxazol-2-yl)amino)-1H-benzo[d]imidazole-5-carboxamide]"
12,1.5,"COCCNC(=O)c1ccc2c(c1)nc(Nc1nc3ccc(OC(F)(F)F)cc3o1)n2CC1CCOC1 (stereo not drawn) [Example 88, N-(2-methoxyethyl)-1-((tetrahydrofuran-3-yl)methyl)-2-((6-(trifluoromethoxy)benzo[d]oxazol-2-yl)amino)-1H-benzo[d]imidazole-5-carboxamide]"
13,1.2,"COCCNC(=O)c1ccc2c(c1)nc(Nc1nc3cc(C)ccc3o1)n2C [Example 65, N-(2-methoxyethyl)-1-methyl-2-((5-methylbenzo[d]oxazol-2-yl)amino)-1H-benzo[d]imidazole-5-carboxamide]"
14,1.1,"CN(C)CCNC(=O)c1ccc2c(c1)nc(Nc1nc3ccccc3o1)n2C [Example 21, 2-(benzo[d]oxazol-2-ylamino)-N-(2-(dimethylamino)ethyl)-1-methyl-1H-benzo[d]imidazole-5-carboxamide]"
15,0.8,"COCCNC(=O)c1ccc2c(c1)nc(Nc1nc3ccccc3o1)n2C [Example 1i, 2-(benzo[d]oxazol-2-ylamino)-N-(2-methoxyethyl)-1-methyl-1H-benzo[d]imidazole-5-carboxamide]"
